Results from US20260007639A1, “COMPOUNDS FOR THE TREATMENT OF NEUROMUSCULAR DISORDERS” (NMD PHARMA A/S, priority 2017, published 2026).
Where two headings read alike, the source gives them in different places.

Columns and labels:
rat soleus muscles [1] = experiment: Mg2+ concentration required to depress nerve-stimulated force by 50% (Kd,Mg2+), combination with 3,4-AP (Table 5); conditions: pre-incubation with 10 μM 3,4-AP
Description: Muscles from 4-week-old rats were stimulated to contract by activating the motor nerve with short duration pulses in field stimulation. Muscles contracted every 10 min for 2 s in response to 30 Hz stimulation. Four different experimental conditions were used. […] FIG. 6C similar to FIG. 6A but this muscle had been pre-incubated with 3,4-AP. […] The force integral (AUC) was determined at each extracellular Mg^2+ concentration. AUC was plotted against Mg^2+ concentration and the data was fitted to a sigmoidal function. This provided the extracellular Mg^2+ concentration that was required to reduce the nerve-stimulated force to 50% (Mg50) under the four different conditions (see Table 4).
While the use of tubocurarine mimics conditions with reduced neuromuscular transmission due to post-synaptic dysfunction (myasthenia gravis, neuromuscular blockade), the experiments with elevated extracellular Mg^2+ mimics conditions with pre-synaptic dysfunction akin to a range of neuromuscular disorders including Lambert Eaton syndrome, motor neuron disorders and polyneuropathy. […] Based on this it was determined whether recovery of nerve-stimulated force at elevated extracellular Mg^2+ with CIC-1 inhibiting compounds could be added to force recovery with 3,4-AP. […] To quantify the effect of compounds on Mg^2+ sensitivity the force at the different Mg^2+ concentrations was determined. […]

rat soleus muscles [2] = experiment: Recovery of nerve-stimulated force in isolated rat soleus muscles exposed to sub-maximal tubocurarine (Table 1); conditions: % change in AUC compared to AUC before addition, after 40 min in tubocurarine
Description: The motor nerve was stimulated every 10 min for 2 s with 30 Hz with field stimulation using short duration pulses. […] Traces are shown before addition tubocurarine, after 40 min with tubocurarine, and after 110 min tubocurarine. […] This recovery of force was used in Table 1.
Experiments were performed using rat soleus muscles from either young (4-wk-old) or adult Wistar rats (12-14-week-old). Animal handling, killing and isolation of muscle is described elsewhere All experiments were performed using normal Krebs-Ringer bicarbonate solution (NKR). In solutions with elevated Mg^2+, MgCl^2 was added to NKR-solution causing minor increases in osmolarity and ionic strength. In solutions with elevated K^+, 4 mM NaCl was replaced by 4 mM KCl in the NKR.
In all contraction experiments, isometric force production was determined and force produced during contractions was quantified by measuring the integral of the force response (AUC). Stimulation and force recordings have been described elsewhere. […] In these latter experiments, extracellular recordings of action potentials (M-waves) could be measured without temporal overlap with stimulation artefacts.
The aim was to find compounds that by inhibition of CIC-1 channels can recover nerve-stimulated force under conditions of fatigue including conditions where fatigue is caused by compromised neuromuscular transmission. Neuromuscular transmission dysfunction can develop because of both pre- and/or post-synaptic complications in connection with a disorder or as part of neuromuscular blockade during/after surgery. In the initial series of drug testing, experiments were performed with isolated muscles in the presence of sub-maximal ACh receptor antagonist tubocurarine. Since the inclusion of tubocurarine caused a partial loss of neuromuscular transmission this experiment mimics the conditions in myasthenia gravis and neuromuscular blockade. To mimic conditions with pre-synaptic complication (Lambert Eaton syndrome, motor neuron disorder, polyneuropathy) the intact nerve-muscle preparations were incubated at elevated extracellular Mg^2+, which is known to suppress release of ACh from nerve terminals of motor neurons. […]
For comparison with the muscle only exposed to tubocurarine (grey trace), the two traces have been overlaid. […] For comparison, muscles only exposed to tubocurarine have been included. The dotted line indicates the recovery of force with C8 when compared to the force production before its addition. This value was used in Table 1 for evaluation of the efficacy of the different compounds in recovering force.

rats [3] = experiment: Rotarod running performance of rats after I.P. tubocurarine (myasthenia like phenotype); type: in vivo, rat; conditions: C8 20 mg/kg I.P. 2 hrs before tubocurarine 0.13 mg/kg I.P.; tested 21 minutes after tubocurarine
Description: FIG. 9A illustrates the design of the experiments. Prior to Day One the animals had been familiarized to the rotarod in three training sessions distributed over two days.
(§1) In both series of experiments, running performance was tested on a rotarod using a protocol where the rod was accelerated gradually over a 5 min period, and the running time and covered distance before falling off the rod were measured.
Experiments with tubocurarine were carried out over two days, and on each day the effect of tubocurarine on running performance was tested. On the first day only tubocurarine was injected. […] On the second day, the animals were first allowed to run on the rotarod, and all animals performed normally. […] The allocation of the animals into the two groups (C8 or sham) was random and unknown to the experimenter (blinded experimental design).
In the first series of in vivo experiments, myasthenia gravis was simply mimicked by I.P. injection of tubocurarine (0.13 mg/kg) in animals that had been familiarized to running on the rotarod. On the first of two consecutive days, tubocurarine was injected I.P. and the running performance of the animal was tested 21 minutes after this injection. On the second day of experimentation, the animals first performed a test run to ensure that they were no longer affected by the tubocurarine injected the day before. […]

rats [4] = experiment: Rotarod running performance in passive myasthenia gravis induced in rats with MAB35 monoclonal antibody; type: in vivo, rat; conditions: rats with stable reduction in performance after MAB35, versus sham
Description: Prior to I.P. injection of MAB35 the animals had been familiarized to the rotarod over three training sessions distributed over two days. […] After this treatment performance was monitored every second hour. * Indicates significant different as evaluated using student t-test.
as §1
In experiments with MAB35, animals were first familiarized with the rotarod over two consecutive days and then injected I.P. with MAB35. After injection, rotarod performance was then again monitored regularly over the consecutive two days. […] A considerable number of animals, however, became moribund failing to walk and they had altered ventilation (rapid) and pronounced ptosis. These animals were not included in experiments.
In the last series of experiments, myasthenia gravis was mimicked in rats by inducing an immunological reaction against the motor endplate of muscle fibers using monoclonal antibody against the nicotinic ACh receptor in muscle fibers. Again the animals had been familiarized to the rotarod before the MAB35 injection. […] From FIG. 10 it can be seen that upon injection sham treatment the performance further declined.

rat soleus muscles [5] = experiment: Tubocurarine concentration required to depress nerve-stimulated force by 50% (Kd,tub), combination with neostigmine or pyridostigmine (Table 4); conditions: pre-incubation with 50 μM C8, 10 nM neostigmine or both
Description: Muscles from 4-week-old rats were stimulated to contract by activating the motor nerve with short duration pulses in field stimulation. Muscles contracted every 10 min for 2 s in response to 30 Hz stimulation. Four different experimental conditions were used. […] After this pre-incubation, increasing concentrations of tubocurarine were added to the bath solutions with 60 min (corresponding to six contractions) between each increase in tubocurarine. […] FIG. 5C similar to FIG. 5A but this muscle had been pre-incubated with neostigmine. […] The force integral (AUC) was determined at each tubocurarine concentration. Such AUC determinations were plotted against tubocurarine concentration for each muscle.
CIC-1 is a novel target in treatment of neuromuscular complications and it was therefore explored whether this approach for symptomatic treatment could be used in combination with existing symptomatic treatment approaches. […] To quantify the effect of compounds on tubocurarine sensitivity, the force at the different tubocurarine concentrations was determined. In plots of nerve-stimulated force against tubocurarine concentration (FIG. 5E) Kd, tub was determined by fitting four parameter sigmoidal functions to the data and the Kd, tub for the different compounds have been collected in Table 4.

rat soleus muscle = type: cell-based; conditions: μ-conotoxin GiiiB present
rat soleus muscles [6] = experiment: Recovery of nerve-stimulated force in isolated rat soleus muscles exposed to 3.5 mM Mg2+ (Table 2); conditions: rat soleus exposed to 3.5 mM Mg2+, force before addition 38 ± 6 % of control
rat soleus muscles [7] = experiment: Recovery of nerve-stimulated force in isolated rat soleus muscles with ACh receptors inhibited by 2 μM rocuronium; conditions: 50 μM C8 added in the presence of 2 μM rocuronium; 8 muscles; p<0.01
Description: In a separate series of experiments with 8 isolated rat soleus muscles, ACh receptors were inhibited using 2 μM rocuronium, which is a clinically used neuromuscular blocking agent. Under these conditions the nerve-stimulated force was reduced to 51±5% of force before rocuronium. […] This illustrates the potential of these compounds to be used as reversal agents.

human muscles = conditions: 150 μM C8; isolated human muscle
[8] = Pharmacokinetic analysis of a single I.P. dose of C8 in rats (Table 6); type: in vivo, Sprague-Dawley rats; conditions: one-bolus I.P. injection
Description: This part of the study was performed by Pipeline Biotech A/S (Spørring, Denmark). […] Plasma concentrations (free and bound) were determined by OnTarget Chemistry (Uppsala, Sweden, Project No.: PB243-001).
Before conducting in vivo experiments with animal models of myasthenia gravis, some pharmacokinetic details were obtained for C8 in response to one-bolus I.P. injection.

In the case of `Nc1ccncc1N` [3,4-AP, 3,4-diaminopyridine], the “nerve-stimulated force at elevated Mg2+ compared to control” value (rat soleus muscles [1]) was “remain elevated”.

With `C[C@H](Oc1ccc(Br)cc1)C(=O)O` [Compound C8, (2S)-2-(4-bromophenoxy)propanoic acid] the “50 μM % change after addition (AUC force)” value (rat soleus muscles [2]; 50 μM compound) was 16%, the “150 μM % change after addition (AUC force)” value (rat soleus muscles [2]; 150 μM compound) was 23% and the “increase in running performance (distance on rotarod) on the second day compared to the first day” value (rats [3]) was “around 150%”. For the same compound, the “rotarod running performance after treatment” value (rats [4]; C8 20 mg/kg) was “decline was reduced”, the “rotarod running performance after treatment” value (rats [4]; C8 30 mg/kg) was “clear recovery of performance” and the “nerve-stimulated force at different tubocurarine concentrations compared to control” value (rat soleus muscles [5]) was “elevated nerve-stimulated force”. The “EPP amplitude compared to control conditions” value (rat soleus muscle; 10 μM C8) was “significantly larger EPPs”, the “EPP amplitude compared to control conditions” value (rat soleus muscle; 25 μM C8) was “significantly larger EPPs” and the “50 μM % change after addition (AUC force)” value (rat soleus muscles [6]; 50 μM compound) was 13 ± 4%. The “100 μM % change after addition (AUC force)” value (rat soleus muscles [6]; 100 μM compound) was 26 ± 5%, the “nerve-stimulated contractile force, % of force before rocuronium” value (rat soleus muscles [7]) was 81±4% and the “contractile force at elevated K+ and TTX” value (human muscles) was “markedly recovery”. The “AUC 0-inf_obs” value [8] was 205.381 µg·h/mL, the “AUC 0-t” value [8] was 203.635 µg·h/mL and the C0 [8] was 24533 ng/mL. For the same compound, the CI_obs [8] was 48.69 mL/h, the Cmax [8] was 44600 ng/mL and the Tmax [8] was 0.5 h. For the same compound, the VD_obs [8] was 259.62 mL and the t1/2 [8] was 3.70 h.
